Test results published in ChEMBL document CHEMBL3507680, “University of Dundee, Gates Library screen for HepG2 cell viability”.

Test: Human HepG2 cell viability assay in 384 well format
Format: toxicity, cell-based
Parameters: dose 125 nL, time 70.5 hour; cytotoxicity at 70.5 h: concentration not given beside the values
Settings: HepG2 cells, read-out: Inhibition

SMILES | cytotoxicity at 70.5 h
COCc1nc(C(=O)NS(=O)(=O)c2ccc(C)c(C)c2)cs1 | 25.8%
CSCC(C)(O)CNC(=O)Nc1ccc(C)cc1Br (centres undefined) | -3.05%
Cn1ccc(C(=O)Nc2nnc(-c3ccccn3)[nH]2)cc1=O | -22.2%
CC(C)c1nc2cc(NC(=O)Cn3ccccc3=O)ccc2o1 | -3.88%
COc1ccc(Br)cc1CN(C)C(C)c1nc(C(C)C)no1 (centres undefined) | -19.6%
O=C(NC1CCN(c2cccc(OC(F)(F)F)c2)C1=O)C1CC1 (centres undefined) | 0.481%
O=C(CS(=O)(=O)C1CCCC1)NC1CCc2nccn2C1 (centres undefined) | -9.54%
Cc1cn2c(n1)CCC(NC(=O)CNS(C)(=O)=O)C2 (centres undefined) | -4.61%
CCCC(NC(=O)c1occc1C)c1nnn[nH]1 (centres undefined) | -1.34%
Cc1cccc(NC(=O)[C@@H]2CCCN2Cc2nnc(C(C)C)n2C)n1 | -1.83%
O=C(CCN1CCCC1c1cccc2c1OCCO2)N1CCOCC1 (centres undefined) | -2.76%
O=C(CCc1ncc(-c2ccc(F)cc2)o1)NCCN1CCOCC1 | -3.91%
O=C(C1CC(=O)N(c2ccccc2Br)C1)N1CCN(CC(F)(F)F)CC1 (centres undefined) | -8.32%
CCC(C)(C)NCc1nc(C(C)(C)NC(=O)OC(C)(C)C)no1 | -10.2%
O=C(NCCNS(=O)(=O)c1cc(F)cc(F)c1)c1ccoc1 | -8.89%
COc1ccccc1NC(=O)Cc1c(C)nc2c(c1C)c(=O)[nH]n2C | -3.59%
O=C(Nc1ccc(OCc2cccc(F)c2)c(F)c1)C1COCCO1 (centres undefined) | -3.19%
Cc1cc(C)cc(NC(=O)Cc2c(C)nc3c(c2C)c(=O)[nH]n3C)c1 | -0.0448%
CCNC(=O)NC1CCN(c2ccc(S(=O)(=O)CC)cc2)CC1 | 0.434%
COc1ncccc1NC(=O)N1CCC(c2ccc(O)cc2)CC1 | -3.42%

SMILES | cytotoxicity at 70.5 h
COc1ccc(CNC(=O)NC2CCN(c3ccccc3)C2=O)cc1 (centres undefined) | -4.11%
Cc1cnn(CC2CCCN2CC(=O)Nc2nncs2)c1 (centres undefined) | -5.64%
CCc1nc(NS(=O)(=O)c2cc(C)cc(F)c2)no1 | -0.337%
CCS(=O)(=O)NCc1cc(Br)c(OC)c(OC)c1 | -8.56%
Cc1ccccc1C(O)CNS(=O)(=O)Cc1cccc(C#N)c1 (centres undefined) | -3.55%
CCOCc1cccc(NC(=O)C2COCCO2)c1 (centres undefined) | -7.73%
O=C(NCCc1ccc(F)cc1)NC1CCCc2c1cnn2CCO (centres undefined) | -6.55%
CN(Cc1ccccc1)C(=O)CCNS(=O)(=O)c1cccnc1 | 11.8%
COc1ccc(OCC(O)CN2CCN(c3nccs3)CC2)cc1 (centres undefined) | -2.04%
OC(COc1ccccc1)CN1CCN(c2nccs2)CC1 (centres undefined) | 0.888%
Cc1ccc(CN(C)C(=O)CCNS(=O)(=O)c2cccnc2)cc1 | -7.21%
Cc1nc(CCNC(=O)NC2CCCc3c2cnn3CCO)cs1 (centres undefined) | -9.35%
O=C(NCCC1=CCCCC1)NC1CCCc2c1cnn2CCO (centres undefined) | -10.1%
CCCN1CCN(C(=O)c2cnn(-c3ccccc3F)c2)CC1 | 8.36%
O=C(NCCN1CCOCC1)c1cnc(Cc2ccc(F)cc2)s1 | -8.24%
Cc1cc(C)cc(OCC(O)CN2CCN(c3nccs3)CC2)c1 (centres undefined) | 8.55%
COC(=O)[C@H](C)NC(=O)c1cnc(Cc2ccc(F)cc2)s1 | -0.425%
COC(=O)C(C)(C)NC(=O)c1cnc(Cc2ccc(F)cc2)s1 | -2.02%
CCNC(=O)NCCc1csc(N2CCCC2)n1 | -9.41%
Cc1sc(C(=O)O)cc1S(=O)(=O)Nc1c(F)cccc1-n1cccn1 | 18.5%

SMILES | cytotoxicity at 70.5 h
Cc1nn(C)c(C)c1C1COCCN1c1ncncc1Br (centres undefined) | -4.79%
CCN(CC1CN(CC2CCC2)CCO1)c1cccnn1 (centres undefined) | -6.19%
COc1ccc(C(=O)N2CCOCC2c2ccc(C)o2)cc1 (centres undefined) | -9.97%
Cc1ccc(C2COCCN2C(=O)c2ccc(F)c(F)c2)o1 (centres undefined) | -0.394%
Cc1cc(C)n(-c2ccc(N3CCC4(CC3)OCC(C)O4)nc2)n1 (centres undefined) | -8.82%
OC(CNc1cncc(OCc2ccccc2)n1)c1ccco1 (centres undefined) | -5.66%
CC(C)(C)c1cc(NC(=O)C2COCCO2)n(-c2ccccn2)n1 (centres undefined) | -0.749%
NC(=O)[C@@H]1Cc2ccccc2CN1CCc1cccs1 | -10%
CNC(=O)C1Cc2ccccc2CN1CCc1cccs1 (centres undefined) | -8.64%
CC(C)(C)c1cc(NC(=O)C2CCCO2)n(-c2ccccn2)n1 (centres undefined) | -2.77%
Cc1noc(Cl)c1CC(=O)NCCOc1ccc(F)cc1F | -0.975%
CN(c1cccc2ccccc12)S(=O)(=O)c1cc(C(=O)O)cs1 | -0.615%
CCC(=O)NCC(=O)NCC(C)(C)c1cccc(Br)c1 | -5.47%
Cc1noc(C)c1CNC(=O)NCCOc1ccc(F)cc1F | -3.02%
Cc1cc(C)n(-c2ccc(N3CCC(O)CC3)nc2)n1 | -1.96%
CC(C)NC(=O)CN(C)C1CCN(c2ccc(Cl)cn2)CC1 | -7%
CCOc1ccc(CN(C)C2CCN(c3cc(C)nn3C)C2=O)cc1 (centres undefined) | 19.7%
CC(C)OCCCNC(=O)Nc1cccc2ncccc12 | -2.69%
CC(C)(C)Cc1noc2ncc(C(=O)N3CCCSCC3)cc12 | 11.1%
